Assay results from US10934303B2, “Aryl ethene derivative and pharmaceutical composition containing same as active ingredient” (priority 2016, dated 2021).
Like-named read-outs stand apart in the source and are kept apart here.

Experiments:
ERRγ = format: cell-based
GST-bound ERR alpha LBD = GST-bound ERR alpha LBD (Homo sapiens (Human), UniProt P11474); conditions: TR-FRET, PGC1a coactivator; read-out: Binding Assay, IC50 ERRα
Description: (§2) The arylethene derivative of the present invention was sequentially added to a 384 well plate from a concentration of 10 μM to a final concentration of two-fold dilution. […] After all reagents were added, a reaction was carried out with gentle shaking at 20° C. for 1 hour, and after the reaction, a binding activity was measured by a TR-FRET method.

hERG channel [1] = molecular target: T1, hERG channel (Homo sapiens (Human), UniProt Q12809); conditions: read-out: hERG IC50; fluorescence polarization assay
[2] = molecular target: GST-bound ER alpha ligand-binding domain (LBD) (Homo sapiens (Human), UniProt P03372); assay: biochemical; conditions: TR-FRET, beta-estradiol 4 nM as agonist; read-out: Binding Assay, IC50 ERα
Description: as §2

[3] = molecular target: GST-bound ERR gamma ligand-binding domain (LBD) (Homo sapiens (Human), UniProt P62508); assay: ERRγ binding assay (inverse agonist assay), TR-FRET; conditions: TR-FRET, PGC1a coactivator; read-out: Binding Assay, IC50 ERRγ
Description: 1) ERRγ Binding Assay (Inverse Agonist Assay)
as §2

hERG channel [4] = molecular target: T1, hERG channel; assay: biochemical
in vivo = format: in vivo; conditions: rat; for Cmax: read-out: Cmax
[5] = 1 μM, 30 minutes, 37° C., NADPH
Description: 2) Microsomal Stability Evaluation
(§3) Four liver microsomes (Human, Dog, Rat, Mouse 0.5 mg/ml) with a 0.1 M phosphate buffer solution (pH 7.4), and the arylethene derivative of the present invention were added to a concentration of 1 μM, culturing was performed at 37° C. for 5 minutes in advance, a NADPH regeneration system solution was added thereto, and culturing was performed at 37° C. for 30 minutes. Thereafter, in order to complete the reaction, an acetonitrile solution containing an internal standard material (chlorpropamide) was added thereto, centrifugation (14,000 rpm, 4° C.) was performed for 5 minutes, and a supernatant was injected into a LC-MS/MS system to analyze the substrate drug, thereby evaluating metabolism stability to the arylethene derivative of the present invention.

[6] = 1 μM, 30 minutes, 37° C., NADPH; remark: listed apart in the source
Description: 2) Microsomal Stability Evaluation
as §3

[7] = 1 μM, 30 minutes, 37° C., NADPH; remark: listed apart in the source
Description: 2) Microsomal Stability Evaluation
as §3

in vitro = in vitro ADME; conditions: PBS pH 7.4, 25° C., 5 hours
CYP2C19 = CYP2C19 (Homo sapiens (Human), UniProt P33261); assay: Cytochrome P450 activity inhibition, CYP2C19; format: in vitro ADME; conditions: 10 μM, human liver microsomes, S-mephenytoin substrate
From the text: (§1) 1) Cytochrome P450 (CYP450) Activity Inhibition Evaluation

CYP2D6 = CYP2D6 (Homo sapiens (Human), UniProt P10635); assay: Cytochrome P450 activity inhibition, CYP2D6; format: in vitro ADME; conditions: 10 μM, human liver microsomes, Dextromethorphan substrate
From the text: as §1

CYP1A2 = CYP1A2 (Homo sapiens (Human), UniProt P05177); assay: Cytochrome P450 activity inhibition, CYP1A2; format: in vitro ADME; conditions: 10 μM, human liver microsomes, Phenacetin substrate
From the text: as §1

CYP2C9 = CYP2C9 (Homo sapiens (Human), UniProt P11712); assay: Cytochrome P450 activity inhibition, CYP2C9; format: in vitro ADME; conditions: 10 μM, human liver microsomes, Diclofenac substrate
From the text: as §1

CYP3A4 = CYP3A4 (Homo sapiens (Human), UniProt P08684); assay: Cytochrome P450 activity inhibition, CYP3A4; format: in vitro ADME; conditions: 10 μM, human liver microsomes, Midazolam substrate
From the text: as §1

ERRβ = ERRβ (Homo sapiens, UniProt O95718); conditions: TR-FRET, PGC1a coactivator; read-out: Binding Assay, IC50 ERRβ
Description: as §2

[8] = 1 μM, 30 minutes, 37° C., NADPH; remark: listed apart in the source
[9] = activity relative to reference compound GSK5182, 10 μM

Chain of CYP3A4 (P08684 whole entry): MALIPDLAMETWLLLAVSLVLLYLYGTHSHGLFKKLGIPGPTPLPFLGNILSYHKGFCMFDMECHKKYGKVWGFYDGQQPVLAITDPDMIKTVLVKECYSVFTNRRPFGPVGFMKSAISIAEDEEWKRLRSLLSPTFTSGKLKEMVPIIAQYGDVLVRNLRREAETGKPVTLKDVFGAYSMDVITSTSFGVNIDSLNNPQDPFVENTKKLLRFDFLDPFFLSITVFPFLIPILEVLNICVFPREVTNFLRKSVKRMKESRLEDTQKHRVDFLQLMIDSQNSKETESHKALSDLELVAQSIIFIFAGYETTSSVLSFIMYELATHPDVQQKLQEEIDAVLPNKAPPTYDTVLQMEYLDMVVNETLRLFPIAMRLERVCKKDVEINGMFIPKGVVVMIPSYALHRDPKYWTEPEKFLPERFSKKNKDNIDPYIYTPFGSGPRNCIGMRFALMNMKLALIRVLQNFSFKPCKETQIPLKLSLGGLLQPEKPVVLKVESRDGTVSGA
Chain of CYP2C9 (P11712 whole entry): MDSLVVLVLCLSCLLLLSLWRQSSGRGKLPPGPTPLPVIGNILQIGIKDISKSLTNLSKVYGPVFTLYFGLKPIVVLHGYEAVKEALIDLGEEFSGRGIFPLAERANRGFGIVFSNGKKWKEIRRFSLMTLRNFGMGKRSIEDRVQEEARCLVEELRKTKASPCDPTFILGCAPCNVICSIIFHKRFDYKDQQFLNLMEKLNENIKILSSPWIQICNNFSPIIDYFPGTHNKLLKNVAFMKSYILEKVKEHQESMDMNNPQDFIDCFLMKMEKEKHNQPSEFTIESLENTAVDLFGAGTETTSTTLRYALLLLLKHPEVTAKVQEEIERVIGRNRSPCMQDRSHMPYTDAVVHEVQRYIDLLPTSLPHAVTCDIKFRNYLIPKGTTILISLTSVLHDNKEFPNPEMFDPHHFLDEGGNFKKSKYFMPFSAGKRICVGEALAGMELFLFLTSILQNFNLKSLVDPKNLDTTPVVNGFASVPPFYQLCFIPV
Chain of CYP2C19 (P33261 whole entry): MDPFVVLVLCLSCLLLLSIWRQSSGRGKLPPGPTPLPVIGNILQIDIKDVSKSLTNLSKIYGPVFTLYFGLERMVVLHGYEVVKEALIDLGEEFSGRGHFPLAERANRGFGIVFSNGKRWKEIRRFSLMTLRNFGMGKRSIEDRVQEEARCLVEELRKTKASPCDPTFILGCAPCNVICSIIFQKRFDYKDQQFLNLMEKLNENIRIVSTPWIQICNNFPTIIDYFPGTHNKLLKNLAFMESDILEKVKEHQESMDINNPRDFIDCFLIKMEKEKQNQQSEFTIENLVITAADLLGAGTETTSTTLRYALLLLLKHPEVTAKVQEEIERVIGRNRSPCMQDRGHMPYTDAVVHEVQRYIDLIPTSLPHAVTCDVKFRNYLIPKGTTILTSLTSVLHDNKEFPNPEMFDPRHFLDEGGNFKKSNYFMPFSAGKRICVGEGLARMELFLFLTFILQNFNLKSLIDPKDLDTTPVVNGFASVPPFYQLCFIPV
Chain of CYP1A2 (P05177 whole entry): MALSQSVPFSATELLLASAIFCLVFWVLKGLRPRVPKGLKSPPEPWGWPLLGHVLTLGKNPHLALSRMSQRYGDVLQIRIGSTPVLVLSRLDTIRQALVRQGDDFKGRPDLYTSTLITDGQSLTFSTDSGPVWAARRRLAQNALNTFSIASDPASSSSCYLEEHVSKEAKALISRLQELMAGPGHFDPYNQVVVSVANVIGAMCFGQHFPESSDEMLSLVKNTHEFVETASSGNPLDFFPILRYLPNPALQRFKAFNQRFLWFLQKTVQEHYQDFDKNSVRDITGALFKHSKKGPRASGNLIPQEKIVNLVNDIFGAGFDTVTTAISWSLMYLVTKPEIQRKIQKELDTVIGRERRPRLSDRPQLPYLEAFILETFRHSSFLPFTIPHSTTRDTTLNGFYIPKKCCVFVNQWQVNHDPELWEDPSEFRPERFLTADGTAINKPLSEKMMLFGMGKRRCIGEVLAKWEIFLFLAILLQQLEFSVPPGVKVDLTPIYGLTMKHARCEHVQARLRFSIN
Chain of CYP2D6 (P10635 whole entry): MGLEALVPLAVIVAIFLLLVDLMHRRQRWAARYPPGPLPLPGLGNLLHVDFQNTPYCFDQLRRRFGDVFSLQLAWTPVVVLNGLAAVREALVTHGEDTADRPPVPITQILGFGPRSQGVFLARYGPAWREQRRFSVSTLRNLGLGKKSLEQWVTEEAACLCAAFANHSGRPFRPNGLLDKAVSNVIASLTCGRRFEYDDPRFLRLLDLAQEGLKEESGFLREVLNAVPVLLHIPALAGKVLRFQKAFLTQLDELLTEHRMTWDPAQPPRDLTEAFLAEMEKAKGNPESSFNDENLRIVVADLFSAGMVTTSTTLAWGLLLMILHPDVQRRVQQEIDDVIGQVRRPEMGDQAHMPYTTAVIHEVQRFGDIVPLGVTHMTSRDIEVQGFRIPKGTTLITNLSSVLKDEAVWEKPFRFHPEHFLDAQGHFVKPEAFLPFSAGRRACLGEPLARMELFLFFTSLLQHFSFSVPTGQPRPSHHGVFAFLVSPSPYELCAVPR
Chain of GST-bound ERR gamma ligand-binding domain (LBD) (P62508 233-457): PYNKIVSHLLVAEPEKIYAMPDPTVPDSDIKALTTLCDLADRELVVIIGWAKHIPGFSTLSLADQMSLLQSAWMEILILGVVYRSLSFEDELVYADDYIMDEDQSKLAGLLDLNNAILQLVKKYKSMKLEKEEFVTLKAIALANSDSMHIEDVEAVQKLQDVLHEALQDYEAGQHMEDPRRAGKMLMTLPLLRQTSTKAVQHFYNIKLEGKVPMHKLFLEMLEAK
Chain of GST-bound ER alpha ligand-binding domain (LBD) (P03372 whole entry, looked up, the tested form may be a part): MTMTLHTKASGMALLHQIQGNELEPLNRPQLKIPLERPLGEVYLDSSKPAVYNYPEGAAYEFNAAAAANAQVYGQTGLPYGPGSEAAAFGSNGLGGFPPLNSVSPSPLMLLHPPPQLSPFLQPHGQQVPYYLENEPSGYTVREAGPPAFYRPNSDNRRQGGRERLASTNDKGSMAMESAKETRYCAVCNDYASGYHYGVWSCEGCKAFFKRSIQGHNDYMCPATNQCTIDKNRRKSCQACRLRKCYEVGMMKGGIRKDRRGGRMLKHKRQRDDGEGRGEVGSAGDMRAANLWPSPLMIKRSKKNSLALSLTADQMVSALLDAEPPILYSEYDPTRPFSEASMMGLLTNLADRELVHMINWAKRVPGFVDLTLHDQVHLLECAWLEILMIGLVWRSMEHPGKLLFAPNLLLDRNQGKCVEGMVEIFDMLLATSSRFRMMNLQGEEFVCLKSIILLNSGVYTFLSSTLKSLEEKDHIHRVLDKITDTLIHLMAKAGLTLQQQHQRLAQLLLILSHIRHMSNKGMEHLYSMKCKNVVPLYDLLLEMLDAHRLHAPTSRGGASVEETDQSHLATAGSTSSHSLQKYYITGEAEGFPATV
Chain of ERRβ (O95718 whole entry, looked up): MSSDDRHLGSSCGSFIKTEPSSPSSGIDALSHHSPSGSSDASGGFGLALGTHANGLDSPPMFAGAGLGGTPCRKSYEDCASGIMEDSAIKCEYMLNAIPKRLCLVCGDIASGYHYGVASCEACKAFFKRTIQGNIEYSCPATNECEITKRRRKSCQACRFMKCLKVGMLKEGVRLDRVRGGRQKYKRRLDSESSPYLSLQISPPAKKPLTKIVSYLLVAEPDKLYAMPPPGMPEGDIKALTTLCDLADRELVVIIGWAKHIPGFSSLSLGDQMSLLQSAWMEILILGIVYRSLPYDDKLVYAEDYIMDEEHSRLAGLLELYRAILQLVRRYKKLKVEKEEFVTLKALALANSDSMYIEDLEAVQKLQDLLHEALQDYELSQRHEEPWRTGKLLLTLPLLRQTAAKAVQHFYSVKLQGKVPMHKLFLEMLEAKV
Chain of GST-bound ERR alpha LBD (P11474 193-421): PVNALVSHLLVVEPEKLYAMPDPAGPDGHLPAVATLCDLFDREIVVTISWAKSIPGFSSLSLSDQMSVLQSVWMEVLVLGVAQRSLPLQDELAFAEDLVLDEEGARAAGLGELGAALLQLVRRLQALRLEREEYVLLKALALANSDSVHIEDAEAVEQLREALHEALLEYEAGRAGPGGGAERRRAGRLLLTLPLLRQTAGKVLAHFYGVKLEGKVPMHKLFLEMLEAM

Row | Structure (SMILES) | Functional Assay at 10 μM (% of control), Cpds (ERRγ; 10 μM, 24 hours, AD293) | Functional Assay, Cpds/Ref 5182 (ERRγ; [9]) | IC50 (GST-bound ERR alpha LBD) [µM] | IC50 (hERG channel [1]) [µM] | IC50 [2] [µM] | MS(Microsomal Stability) (%) mouse [5] [%] | MS(Microsomal Stability) (%) human [6] [%] | MS(Microsomal Stability) (%) rat [7] [%] | Permeability Pampa (in vitro) | CYP inhibition (% of control) 2C19 (CYP2C19) | CYP inhibition (% of control) 2D6 (CYP2D6) | CYP inhibition (% of control) 1A2 (CYP1A2) | CYP inhibition (% of control) 2C9 (CYP2C9) | CYP inhibition (% of control) 3A4 (CYP3A4) | IC50 (ERRβ) [µM] | further results
1 | CN1CCCC1CCOc1ccc(/C(=C(/CCCO)c2ccccc2)c2ccc(O)cc2)cc1 (stereo not shown) [Compound 6g] | 4.94 % of control | 1.60 | > 10 | 5.4 | 0.331 |  |  |  |  |  |  |  |  |  |  | IC50 [3]: 0.03 µM
2 | CN1CCC[C@@H]1COc1ccc(/C(=C(/CCCO)c2ccccc2)c2ccc(O)cc2)cc1 [Compound 6i] |  |  |  |  |  |  |  |  |  |  |  |  |  |  |  | Functional Assay at 10 μM (% of control), Cpds (ERRγ): 5 % of control; Functional Assay, Cpds/Ref 5182 (ERRγ): 1.62; IC50 (hERG channel [4]): > 30 µM
3 | Cc1ccc(/C(=C(\CCCO)c2ccccc2)c2ccc(N3CCN(C(C)C)CC3)cc2)cc1 [Compound 18b] | 2.45 % of control | 0.78 | > 10 | > 30 | > 10 | 19.7 | 54.2 | 40.0 | 2.09 10^−6 cm/s | 69.7 % of control | 68.9 % of control | 89.8 % of control | 73.4 % of control | 53 % of control |  | AUCINF (in vivo; IV, 1 mg/kg): 0.64 μMh; AUCall (in vivo; IV, 1 mg/kg): 0.58 μMh; Vss (in vivo; IV, 1 mg/kg): 9.8 L/kg; t1/2 (in vivo; IV, 1 mg/kg): 3.1 h; AUCINF (in vivo; PO, 10 mg/kg): 0.36 μMh; AUCall (in vivo; PO, 10 mg/kg): 0.31 μMh; BA (in vivo; PO, 10 mg/kg): 8.7%; Tmax (in vivo; PO, 10 mg/kg): 0.6 h; Cmax (in vivo; PO, 10 mg/kg): 0.12 µM
4 | CN1CCN(c2ccc(/C(=C(/CCCO)c3ccccc3)c3ccc(O)cc3)cc2)CC1 [Compound 18d] | 9.65 % of control | 0.97 | > 10 | > 20 | 1.7 |  |  |  | 0.14 10^−6 cm/s | 81.2 % of control | 98.4 % of control | 88 % of control | 67.7 % of control | 64 % of control |  | 
5 | Cc1ccc(/C(=C(\CCCO)c2ccccc2)c2ccc(N3CCN(C)CC3)cc2)cc1 [Compound 18f] | 2.57 % of control | 0.82 | > 10 | 18.9 | > 10 | 47.6 | 79.2 | 65.7 | 4.84 10^−6 cm/s | 72.8 % of control | 68.2 % of control | >100 % of control | 62.3 % of control | 70.9 % of control |  | AUCINF (in vivo; IV, 1 mg/kg): 0.29 μMh; AUCall (in vivo; IV, 1 mg/kg): 0.28 μMh; Vss (in vivo; IV, 1 mg/kg): 30.3 L/kg; t1/2 (in vivo; IV, 1 mg/kg): 2.5 h; AUCINF (in vivo; PO, 10 mg/kg): 7.00 μMh; AUCall (in vivo; PO, 10 mg/kg): 2.93 μMh; BA (in vivo; PO, 10 mg/kg): 41.2%; Tmax (in vivo; PO, 10 mg/kg): 2.4 h; Cmax (in vivo; PO, 10 mg/kg): 0.45 µM
6 | CCN1CCN(c2ccc(/C(=C(/CCCO)c3ccccc3)c3ccc(O)cc3)cc2)CC1 [Compound 18i] | 1.88 % of control | 0.97 | > 10 | > 30 | 1.14 |  |  |  | 1.16 10^−6 cm/s |  |  |  |  |  |  | IC50 [3]: 0.05 µM
7 | CC(C)(C)OC(=O)N1CCN(c2ccc(/C(=C(/CCCO)c3ccccc3)c3ccc(Br)cc3)cc2)CC1 [Compound 18n] | 3.36 % of control | 0.82 | 8.25 |  | 8.8 |  |  |  | 0.63 10^−6 cm/s |  |  |  |  |  | 1.09 | 
8 | Cc1ccc(/C(=C(\CCCO)c2ccccc2)c2ccc(N3CCNCC3)cc2)cc1 [Compound 20b] | 3.58 % of control | 0.88 | > 10 |  | > 10 | 28.8 | 44 | 71.5 | 3.61 10^−6 cm/s |  |  |  |  |  | 2.1 | MS(Microsomal Stability) (%) dog [8]: 58%
9 | OCCC/C(=C(\c1ccc(O)cc1)c1ccc(N2CCNCC2)cc1)c1ccccc1 [Compound 20j] | 1.41 % of control | 1.38 | > 10 |  | 0.992 | 25.3 | 76.8 | 84.5 |  | 62 % of control | 89.3 % of control | 93.6 % of control | 77.1 % of control | 66.2 % of control | 4.93 | MS(Microsomal Stability) (%) dog [8]: 68.3%
10 | CC(C)N1CCC(c2ccc(/C(=C(/CCCO)c3ccccc3)c3ccc(O)cc3)cc2)CC1 [Compound 22g] |  |  | > 10 | 22 | 4.37 | 10.7 | 42.8 | 43.2 |  |  |  |  |  |  |  | MS(Microsomal Stability) (%) dog [8]: 54.3%
11 | CC(C)N1CCC(c2ccc(/C(=C(/CCCO)c3ccccc3)c3cccc(O)c3)cc2)CC1 [Compound 22m] |  |  | > 10 |  | > 10 | 24.2 | 55.3 | 53.5 |  | >100 % of control | 70.7 % of control | 97 % of control | 80.3 % of control | 58.1 % of control | 7.82 | AUCINF (in vivo; IV, 1 mg/kg): 0.00 μMh; AUCall (in vivo; IV, 1 mg/kg): 0.34 μMh; Vss (in vivo; IV, 1 mg/kg): 19.9 L/kg; t1/2 (in vivo; IV, 1 mg/kg): 2.4 h; AUCINF (in vivo; PO, 10 mg/kg): 0.00 μMh; AUCall (in vivo; PO, 10 mg/kg): 0.73 μMh; BA (in vivo; PO, 10 mg/kg): 24.3%; Tmax (in vivo; PO, 10 mg/kg): 2.4 h; t1/2 (in vivo; PO, 10 mg/kg): 4.3 h; Cmax (in vivo; PO, 10 mg/kg): 0.13 µM; MS(Microsomal Stability) (%) dog [8]: 55.0%
12 | OCCC/C(=C(\c1ccc(O)cc1)c1ccc(C2CCN(C3CC3)C2)cc1)c1ccccc1 (stereo not shown) [Compound 22t] | 6.19 % of control |  | > 10 |  | 5.94 |  |  |  |  |  |  |  |  |  | 3.56 | 
13 | OCCC/C(=C(\c1ccc(O)cc1)c1ccc(OCCN2CCC[C@@H]2CO)cc1)c1ccccc1 [Compound 38c] | 4.06 % of control |  | > 10 |  | 0.408 |  |  |  |  | 58.8 % of control | 54.3 % of control | 79.2 % of control | 55.3 % of control | 61.5 % of control | > 10 | Functional Assay, Cpds/Ref 5182 (ERRγ): 0.99; IC50 [3]: 0.091 µM
14 | OCCC/C(=C(\c1ccc(O)cc1)c1ccc(OCCN2C[C@H]3C[C@H]3[C@H]2CO)cc1)c1ccccc1 [Compound 38d] | 3.16 % of control | 0.77 |  |  | 0.276 | 11.8 | 6.9 | 11.7 |  | 58.8 % of control | 54.3 % of control | 79.2 % of control | 55.3 % of control | 57.6 % of control | 8.8 | IC50 [3]: 0.083 µM
